Among the test systems are RXF 393 renal; HCT-116 colon; SNB-75 CNS; SR leukemia; A549 NSCLC; SF-268 CNS; K-562 leukemia; CAKI-1 renal; MDA-MB-231 breast; HS 578T breast.
Common to all, as to experiment: NCI-60 cell line screen, 48 h

TGI and GI50 data for 16 compounds are collected here from PubChem BioAssay (NCI).

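All cell lines were grown in 96-well plates and treated with compound for 48 hours. GI50 = concentration required for 50% inhibition of growth. The concentration for full growth arrest is given as TGI.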

Regarding `CC(=O)Nc1ccc(OCC(O)CO)cc1` (centres undefined), the TGI in the test on RXF 393 renal, with HCT-116 colon, with SNB-75 CNS, in the test on SR leukemia, in the test with A549 NSCLC and in the test with SF-268 CNS was more than 100 µM each time. In addition, the TGI in the test with K-562 leukemia and in the test on CAKI-1 renal was more than 100 µM each time.
As to `COc1ccc(S(=O)(=O)N/N=C/CN2C(=O)c3ccccc3C2=O)cc1`, the TGI with RXF 393 renal, in the test with SNB-75 CNS, in the test with SR leukemia, in the test with A549 NSCLC, in the test with K-562 leukemia and in the test with CAKI-1 renal was more than 100 µM throughout.
As for `O=C(OCc1ccccc1)c1ccccc1-c1c2ccc(=O)cc-2oc2cc(OCc3ccccc3)ccc12`, the TGI in the test with RXF 393 renal was 34 µM; in the test with HCT-116 colon, 57.7 µM; with SR leukemia, 18.8 µM; with A549 NSCLC, 82.2 µM; in the test on SF-268 CNS it was more than 100 µM; in the test on K-562 leukemia, more than 100 µM. The compound also gave a TGI in the test with CAKI-1 renal of 58.5 µM.
Take `CCOC(=O)C1C(=O)c2cccc(OC)c2C2COC(=O)N12` (centres undefined): the TGI in the test with RXF 393 renal, in the test with HCT-116 colon, in the test with SNB-75 CNS, in the test on SR leukemia, in the test with A549 NSCLC and in the test with SF-268 CNS was more than 100 µM each time. Also, the TGI in the test with K-562 leukemia is more than 100 µM.
As to `CCN1C(=O)N(CC)C2C1NN=c1s/c(=C\c3cnc(C)n3C)c(=O)n12` (centres undefined), the GI50 is 1.2 µM in the test with RXF 393 renal; 2.43 µM with HCT-116 colon; 0.324 µM with SNB-75 CNS; 2.5 µM with MDA-MB-231 breast; 0.346 µM in the test with SR leukemia; 3.99 µM with A549 NSCLC. Moreover, the GI50 with SF-268 CNS is 4.1 µM; in the test with K-562 leukemia, 0.61 µM; in the test on CAKI-1 renal it was 0.7 µM. The TGI in the test with RXF 393 renal is 5.38 µM; in the test on HCT-116 colon it was more than 100 µM; in the test with SNB-75 CNS, 3.44 µM; in the test on MDA-MB-231 breast it was 31.9 µM; with SR leukemia, 19.1 µM; in the test on A549 NSCLC, more than 100 µM. The TGI in the test on SF-268 CNS, in the test on K-562 leukemia and in the test with CAKI-1 renal was more than 100 µM throughout.
Consider `CC1CCC2[C@@H](C)COC3O[C@]4(C)CCC1C32OO4` (some centres undefined), for which the TGI in the test on RXF 393 renal, in the test with HCT-116 colon, with SNB-75 CNS, in the test on A549 NSCLC, in the test with SF-268 CNS and in the test on K-562 leukemia was more than 100 µM throughout. Further, in the test with CAKI-1 renal, the TGI was more than 100 µM.
Take `CCc1cccc(CC)c1NC(=O)C1=CNC(C)=C(C(=O)Nc2c(CC)cccc2CC)C1c1ccc(O)c(OC)c1` (centres undefined): the TGI with RXF 393 renal is 93.9 µM; in the test with SNB-75 CNS it was more than 100 µM; in the test on A549 NSCLC, more than 100 µM; with SF-268 CNS, more than 100 µM; with K-562 leukemia, 99.5 µM; with CAKI-1 renal, more than 100 µM.
On to `CCN(CC)c1ccc(N=C2C=CC(=C(C#N)C#N)c3ccccc32)c(C)c1`, for which the TGI came to 3.24 µM with RXF 393 renal; 5.8 µM with HCT-116 colon; 5.69 µM in the test on SNB-75 CNS; 5.33 µM with A549 NSCLC; 5.47 µM in the test on K-562 leukemia; 5.4 µM in the test on CAKI-1 renal.
On to `COc1ccc2c(c1)O/C(=C\c1ccc([N+](=O)[O-])s1)C2=O`, for which the GI50 in the test with RXF 393 renal was 1.85 µM; in the test with SNB-75 CNS, 2.36 µM; with SR leukemia, 0.12 µM; with HS 578T breast it was 2.61 µM; in the test with A549 NSCLC it was 3.46 µM; in the test on SF-268 CNS it was 1.8 µM. In addition, the GI50 with K-562 leukemia was 0.285 µM. Moreover, the TGI in the test on RXF 393 renal was more than 20.8 µM; in the test with SNB-75 CNS, 39.2 µM; in the test on SR leukemia it was 0.759 µM; in the test on HS 578T breast, more than 25.2 µM; in the test on A549 NSCLC it was more than 100 µM; in the test with SF-268 CNS it was more than 19.8 µM. Moreover, in the test with K-562 leukemia, the TGI was 1.31 µM.
Take `CN/N=C(/CC(=O)c1sc(NNC(C)=O)nc1C)C(=O)Nc1ccc(OC)cc1OC`: the TGI in the test with HCT-116 colon, in the test with SR leukemia, in the test with A549 NSCLC, in the test with SF-268 CNS, with K-562 leukemia and with CAKI-1 renal was more than 100 µM in each case.
On to `N#CC12CC3(CCC1CCC1(C2)OCCO1)OCCO3` (centres undefined), for which the TGI in the test on RXF 393 renal, in the test on HCT-116 colon, with SNB-75 CNS, in the test with SR leukemia, with A549 NSCLC and in the test with SF-268 CNS was more than 100 µM in each case. Also, the TGI with K-562 leukemia and in the test with CAKI-1 renal was more than 100 µM in each case.
Consider `Nc1ncnc2c1ncn2COC/C=C/I`, for which the TGI with RXF 393 renal, in the test on HCT-116 colon, with SNB-75 CNS, in the test with SR leukemia, in the test on A549 NSCLC and in the test on SF-268 CNS was more than 100 µM in each case. Besides, the TGI with K-562 leukemia and with CAKI-1 renal was more than 100 µM throughout.
With `CCCCCC/C(CC(=O)CCC(=O)NCCc1ccccc1)=N\NC(=O)c1ccc2ccccc2c1O`, the TGI in the test with RXF 393 renal, in the test on HCT-116 colon, in the test with SNB-75 CNS, in the test with A549 NSCLC and in the test with SF-268 CNS was more than 100 µM each time.
For `ClCCCN1CCCCC1CCl` (centres undefined), the TGI in the test on RXF 393 renal, in the test with HCT-116 colon, with SNB-75 CNS, in the test with SR leukemia, with A549 NSCLC and with SF-268 CNS was more than 100 µM throughout. Also, the TGI in the test on K-562 leukemia and with CAKI-1 renal was more than 100 µM each time.
Turning to `O=C1OC(=O)C2C1C1C(c3ccccc3)=C(c3ccccc3)C2(O)C2C(=O)OC(=O)C12` (centres undefined), the TGI with HCT-116 colon, in the test on SNB-75 CNS, in the test on SR leukemia, in the test on A549 NSCLC, in the test with SF-268 CNS and in the test on K-562 leukemia was more than 100 µM throughout. The TGI in the test with CAKI-1 renal is more than 100 µM.
For `COc1c(OC2OC(CO)C(O)C(O)C2O)cc2c(c1OC)-c1ccc(OC)c(=O)cc1[C@@H](NC(C)=O)CC2` (some centres undefined), the TGI is more than 90.4 µM in the test with RXF 393 renal; more than 100 µM in the test on HCT-116 colon; 84.4 µM in the test on SNB-75 CNS; more than 100 µM in the test on SR leukemia; more than 100 µM in the test with A549 NSCLC; more than 56.2 µM in the test with SF-268 CNS. The TGI in the test on K-562 leukemia and with CAKI-1 renal was more than 100 µM throughout.
